Reference: patent US9493460B2, “Diimide compounds” (UCL BUSINESS PLC, priority 2013, dated 2016)
“Also recorded” adds a separate entry of the source.

Legend:
[1] = system: 83 human genes involved in telomere replication and maintenance in Mia-PaCa2 cells; experiment: qPCR array, telomere replication and maintenance genes; assay type: cell-based
Method: (§1) Following compound exposure, cells were washed twice in PBS, harvested by trypsinisation, collected by centrifugation (300 g, 5 min, 4° C.) and re-suspended in RLT buffer (Qiagen). Samples were homogenised using QIAshredder spin columns and stored at −80° C. prior to RNA extraction. Three biological replicates were performed on separate days.
(§2) The expression of (i) 83 key human genes involved in telomere replication and maintenance, and (ii) 83 human genes involved in DNA damage signaling responses, was assessed using PCR arrays (SABiosciences). Total RNA was extracted from approximately 1×10^7 Mia-PaCa2 cells treated for 24 h with compound 3d, using the RNeasy kit (Qiagen) with on-column DNaseI treatment to remove residual genomic DNA. The quality of the harvested RNA was confirmed by nanodrop spectroscopy and by analysis with a Human RT^2 RNA QC PCR Array. First-strand cDNA synthesis was performed with the RT^2 first strand kit and qPCR was carried out using the RT^2 qPCR master mix (Qiagen) using 0.5 μg total RNA per array plate in a Stratagene MX-3000P instrument (Agilent, USA). Relative gene expression was determined by the ΔΔCT method using the web-based RT^2 Profiler™ PCR Array Data Analysis software (SABiosciences). Data were normalized to the geometric mean of five housekeeping genes (RPLP10, β-actin, B2M, GAPDH and HPRT1).
Dose-response curves were used to guide the choice of compound concentration and time-points for the array experiments (FIG. 2a). […] To explore this response continuum the transcriptional signature of cells exposed for 24 h to 20 nM, 40 nM, 80 nM concentrations of 3d, or solvent alone as control, was analysed as described in Materials and Methods.
However, changes in transcript abundance were modest, with only seven of these genes (MYC, NHP2, PPARG, PRKCB, PTEGES3, RASSF1 and SLX4) showing greater than two-fold abundance changes (FIGS. 2d and 2e).

[2] = system: 83 human genes involved in DNA damage signaling responses in Mia-PaCa2 cells; experiment: qPCR array, DNA damage signaling response genes; assay type: cell-based
Method: as §1, §2
Various quadruplex-stabilising agents are known to induce pronounced DNA damage responses. We therefore next assessed the effect of 3d on the transcription of genes associated with DNA damage response and repair pathways. For these pathways the effect of a cytotoxic dosage of 3d (160 nM) on Mia-PaCa2 cells was also tested to assess the correlation between compound-induced DNA damage and cell killing. […] The latter two groups appeared to reflect a dynamic switch in the cellular response from low-level growth inhibition up to 40 nM of 3d to cytostatic then cytotoxic effects at 80 nM and 160 nM respectively.
Instead the response was dominated by genes with roles in growth arrest and more general stress responses.

[3] = Pharmacokinetics after bolus IV injection; assay type: in vivo, Balb/c female mice; conditions: bolus IV 20 mg/kg, mice
From the text: Balb/c female mice (7-8 weeks old) were housed in microisolator cages, fed with commercial mouse food (Food Harlam 2018, Madison, USA) and allowed to acclimatise for seven days before any procedure.

[4] = system: Mia-Paca2 human pancreatic tumour xenografts; experiment: MiaPaca-2 tumour xenograft; assay type: in vivo, CD1 nu/nu female mice
Method: CD1 nu/nu female mice (7-8 weeks old) were housed in microisolator cages, fed with commercial mouse food (Food Harlam 2018, Madison, USA) and allowed to acclimatise for seven days before any procedure. Exponentially growing MiaPaca-2 cells (5×10^6 cell/100 uL unsupplemented RPMI) were inoculated subcutaneously into the right flank (100 uL per mice). Measurements of tumour growth were carried out at least twice a week with digital callipers until tumour masses reached an average size of 0.1 cm^3. Tumour volume was calculated by using the standard formula for determining the volume of an ellipsoid ([length×width×depth×π]/6)).
(§3) In a first experiment, mice were allocated into groups (six mice per group) as follows: control group (IV 100 uL/10g sterile PBS) and single dose of 20 mg/kg of 3d (IV 100 uL/10 g body weight in sterile PBS).
(§4) In a subsequent experiment using CD1 nu/nu female mice as described above, mice were allocated into groups (six mice per group) as follows: control group (IV 100 uL/10 g sterile PBS) and 3d at 15 mg/kg given once weekly. […] In the control group the median time to endpoint was 42 days compared to 79 days in the treated group.

[5] = Tolerability and body weight in xenograft study; assay type: in vivo
Method: as §3, §4

CN1CCN(CCCNc2cc3c4c(c(NCCCN5CCN(C)CC5)cc5c4c2C(=O)N(CCCN2CCOCC2)C5=O)C(=O)N(CCCN2CCOCC2)C3=O)CC1 [Compound 3d, 4,9-bis((3-(4-methylpiperazin-1-yl)propyl)amino)-2,7-bis(3-morpholinopropyl)benzo[lmn][3,8]phenanthroline-1,3,6,8(2H,7H)-tetraone]
number of telomere maintenance genes with greater than two-fold abundance changes ([1]; 20, 40 or 80 nM, 24 h): seven | expression of the gene encoding POT1 ([1]; borderline of statistical significance): down-regulation | number of telomere maintenance genes up or down-regulated to a statistically significant level (P<0.05) ([1]; of 83 genes, 20, 40 or 80 nM, 24 h): 30 genes | expression of DNA damage checkpoint genes ATM and ATR ([2]; 24 h): no significant induction or repression | induction of γ-H2AX ([2]; Mia-PaCa2 cells, data not shown): no apparent induction; also recorded: do not appear to induce these particular changes | expression of CDKN1A, DDIT3 and GADD45G ([2]; cytotoxic concentrations): strongly up-regulated | expression of the PARP gene ([2]; dose-dependent): down-regulated | expression of CDKN1A, DDIT3 and GADD45G ([2]; lower concentrations): strongly down-regulated | number of DNA damage response genes significantly increased or decreased greater than 2-fold ([2]; of 83 genes, 20, 40, 80 or 160 nM, 24 h): 16 genes | drug level at 24 hours [3]: no detectable drug | Cmax ([3]; female, Balb/c, mouse, in vivo): 1600 nM | half-life ([3]; female, Balb/c, mouse, in vivo): 4 h | antitumour response ([4]; 15 mg/kg once weekly): sustained antitumour response | median time to endpoint ([4]; 15 mg/kg once weekly, control group 42 days): 79 days | mice with a complete response, tumour free at 136 days ([4]; 15 mg/kg once weekly, of six mice): two | tumour growth compared to untreated controls ([4]; single dose 20 mg/kg IV): significant growth delay | tolerability of therapy ([5]; 15 mg/kg once weekly): well tolerated | bodyweight loss ([5]; single dose 20 mg/kg or 15 mg/kg once weekly): without any significant bodyweight loss
